# Results: patent US5061690A, “Method for increasing milk production in mammals and/or increasing the birth weight of their newborn and improving postnatal growth” (Institut National de la Recherche Agronomique, priority 1987, dated 1991)
# Entries after “also recorded” stand apart in the source; their conditions may differ. Where two headings read alike, the source gives them in different places.
# Experiments:
# [1] = system: multiparous gravid ewes; assay: hGRF (1-29) on completion of two-thirds and/or at end of gestation in ewes: birth weight and growth of lambs; assay type: in vivo; settings: for Weight of the Lambs at 30 days: control 12.12 ± 0.7 kg
# Experimental: 48 multiparous gravid ewes were distributed in four batches of 12 ewes each, account being taken of the earlier milk productions and of the anticipated parity (OCS--Ovine Chorionic Somatotropin--assay). The first batch forms the control batch, the ewes receiving no treatment. The other three batches receive 1.5 mg of hGRF (1-29) subcutaneously twice daily; from day 105 to day 115 of gestation for the second batch, which will be designated hereinafter as batch "GRF1"; from day 137 of gestation to littering for the third batch, which will be designated hereinafter as batch "GRF2"; and from day 105 to day 115 of gestation and from day 137 of gestation to littering for the fourth batch, which will be designated hereinafter as batch "GRF1+2". As in the above study, the administration of hGRF (1-29) is stopped as soon as parturition takes place, and lambing is induced by the administration of dexamethasone on day 145 of gestation, under the conditions described above. After parturition, the milk production of the ewes was measured twice daily, and the growth of the lambs, which received an artificial milk-feed supplied "ad libitum", was followed, the lambs receiving no growth adjuvant treatment. The analysis concerned only twin lambs, distributed as follows: At the age of 30 days, after variance analysis taking birth weight as covariable, a larger growth of all the lambs born of the mothers of batch GRF2 was observed. This is shown in FIG. 3, which is an illustration similar to that of FIG. 4, enabling the weights of the lambs born of the mothers of the four batches to be compared at the age of 30 days. Table 1 below complements this FIG. 3.
# [2] = system: gravid ewes; assay: OGH (growth hormone) assay in gravid ewes given hGRF (1-29) at the end of gestation; assay type: in vivo; settings: batch B
# Experimental: 30 gravid ewes which were at the 135th day of gestation were distributed in two batches of 15 ewes each, account being taken of the number of fetuses assumed to be present in the uteri and of the earlier milk outputs, all the ewes being multiparous. Batch A, which receives no treatment, serves as control batch. Batch B receives 1.5 mg of hGRF (1-29) (equivalent to approximately 20 μg per kg of body weight) subcutaneously twice daily, at 8.00 hours and 14.00 hours, from day 137 of gestation up to the day of littering (which varied between day 145 and day 147, depending on the ewe). The administration of hGRF (1-29) is stopped as soon as parturition takes place. In all the animals, lambing is induced by the administration of 9 α-fluoro-11β,17α,21-trihydroxy-16α-methyl-1,4-pregnadiene-3,20-dione (proposed under the INN of dexamethasone) on the basis of 16 mg intramuscularly at 20.00 hours on day 144 of gestation. […] This discharge is the same in nature after the morning injection and after that of the afternoon. […] This is shown in FIG. 1 of the attached drawings, which represents the OGH hormone assay in terms of the time of day (mean over 15 ewes) on day 138 and on day 146 of gestation.
# [3] = system: gravid ewes; assay type: in vivo
# Experimental: 30 gravid ewes which were at the 135th day of gestation were distributed in two batches of 15 ewes each, account being taken of the number of fetuses assumed to be present in the uteri and of the earlier milk outputs, all the ewes being multiparous. Batch A, which receives no treatment, serves as control batch. Batch B receives 1.5 mg of hGRF (1-29) (equivalent to approximately 20 μg per kg of body weight) subcutaneously twice daily, at 8.00 hours and 14.00 hours, from day 137 of gestation up to the day of littering (which varied between day 145 and day 147, depending on the ewe). The administration of hGRF (1-29) is stopped as soon as parturition takes place. In all the animals, lambing is induced by the administration of 9 α-fluoro-11β,17α,21-trihydroxy-16α-methyl-1,4-pregnadiene-3,20-dione (proposed under the INN of dexamethasone) on the basis of 16 mg intramuscularly at 20.00 hours on day 144 of gestation. The birth weights of the lambs born of mothers of the two batches A and B were compared.
# [4] = system: multiparous gravid ewes; assay: hGRF (1-29) on completion of two-thirds and/or at end of gestation in ewes: milk production; assay type: in vivo
# Experimental: 48 multiparous gravid ewes were distributed in four batches of 12 ewes each, account being taken of the earlier milk productions and of the anticipated parity (OCS--Ovine Chorionic Somatotropin--assay). The first batch forms the control batch, the ewes receiving no treatment. The other three batches receive 1.5 mg of hGRF (1-29) subcutaneously twice daily; from day 105 to day 115 of gestation for the second batch, which will be designated hereinafter as batch "GRF1"; from day 137 of gestation to littering for the third batch, which will be designated hereinafter as batch "GRF2"; and from day 105 to day 115 of gestation and from day 137 of gestation to littering for the fourth batch, which will be designated hereinafter as batch "GRF1+2". As in the above study, the administration of hGRF (1-29) is stopped as soon as parturition takes place, and lambing is induced by the administration of dexamethasone on day 145 of gestation, under the conditions described above. After parturition, the milk production of the ewes was measured twice daily, and the growth of the lambs, which received an artificial milk-feed supplied "ad libitum", was followed, the lambs receiving no growth adjuvant treatment. After a variance analysis, taking the earlier production as covariable, and after correction taking into account the parity (number of lambs per pregnancy) during the lactation in progress and during the reference lactation, the results for the milk production were compared between the control batches and batches "GRF1" and "GRF2". From the results obtained over five weeks of lactation, the curves of FIGS. 4 and 5 were plotted, the source data being reported in Table 2 below.
# [5] = system: dairy cows; settings: cited from earlier work; for milk production increased: milk adjusted to fat content 3.5%
# [6] = 1.5 mg s.c. twice daily from day 137 of gestation to littering
molecule,measurement,setting,value
"hGRF (1-29): form of human growth hormone releasing factor containing 29 amino acids, obtained after deletion of the C-terminal portion",Weight of the Lambs at 30 days,"[1]; batch GRF1+2: day 105 to 115 and day 137 to littering, 10 lambs",13 ± 0.66 kg
same,birth weight of the lambs versus control,"[1]; batch GRF1+2: day 105 to 115 and day 137 to littering, twin lambs n=12",substantially similar
same,Weight of the Lambs at 30 days,"[1]; batch GRF1: day 105 to 115 of gestation, 14 lambs",13.6 ± 0.5 kg
same,birth weight of the lambs versus control,"[1]; batch GRF1: day 105 to day 115 of gestation, twin lambs n=16",substantially similar; also recorded: of the same order
same,mean birth weight of the lambs,"[1]; batch GRF2: day 137 of gestation to littering, twin lambs n=12, control 2.91 kg",3.54 kg
same,Weight of the Lambs at 30 days,"[1]; batch GRF2: day 137 to littering, 12 lambs",14.73 ± 0.53 kg
same,excess of lamb growth at 30 days over lambs of control mothers,[1]; ewes treated between days 105 and 115 of gestation (GRF1),~11%
same,excess of lamb weight at 30 days over the controls,"[1]; mothers treated between days 137 and 147 of gestation (GRF2), corrected for birth weight",21%
same,discharge of growth hormone (GH),[2]; [6],of large magnitude
same,duration of the discharge of growth hormone after the subcutaneous injection,[2]; [6],approximately 5 hours
same,"GH response, day 146 versus day 138 of gestation","[2]; mean over 15 ewes, FIG. 1",magnified as the term of the pregnancy is approached
same,birth weight of the lambs born of treated mothers,"[3]; batch B, n=20, 1.5 mg s.c. twice daily day 137 to littering, control batch A 3.61±0.14 kg",4.17 ± 0.13 kg
same,effect on dates of the lambing (parturition),[3]; in vivo,not modifying the dates of the lambing
same,milk production greater than that of the control ewes,"[4]; batch GRF1 (days 105 to 115 of gestation), fifth week of lactation",more than 23%
same,Milk production,"[4]; batch GRF1, week of lactation 1, FIG. 4, control 980 ± 70",1075 ± 50
same,Milk production,"[4]; batch GRF1, week of lactation 2, FIG. 4, control 950 ± 60",1090 ± 70
same,Milk production,"[4]; batch GRF1, week of lactation 3, FIG. 4, control 845 ± 50",1025 ± 60
same,Milk production,"[4]; batch GRF1, week of lactation 4, FIG. 4, control 760 ± 45",920 ± 60
same,Milk production,"[4]; batch GRF1, week of lactation 5, FIG. 4, control 720 ± 50",880 ± 50
same,Milk production,"[4]; batch GRF2, week of lactation 1, FIG. 5, control 1020 ± 50",1050 ± 60
same,Milk production,"[4]; batch GRF2, week of lactation 2, FIG. 5, control 1025 ± 60",1010 ± 50
same,Milk production,"[4]; batch GRF2, week of lactation 3, FIG. 5, control 975 ± 50",855 ± 50
same,Milk production,"[4]; batch GRF2, week of lactation 4, FIG. 5, control 925 ± 50",840 ± 40
same,Milk production,"[4]; batch GRF2, week of lactation 5, FIG. 5, control 860 ± 50",745 ± 60
"bGH: bovine growth hormone obtained by genetic recombination (protein, UniProt P01246 27-217, looked up) Somatotropin: AFPAMSLSGLFANAVLRAQHLHQLAADTFKEFERTYIPEGQRYSIQNTQVAFCFSETIPAPTGKNEAQQKSDLELLRISLLLIQSWLGPLQFLSRVFTNSLVFGTSDRVYEKLKDLEEGILALMRELEDGTPRAGQILKQTYDKFDTNMRSDDALLKNYGLLSCFRKDLHKTETYLRVMKCRRFGEASCAF",milk production increased,[5]; 12.5 mg bGH per day,16%
same,nutritional efficiency (kg milk with 3.5% fat per kg dry matter ingested) increased,[5]; 12.5 mg bGH/day for a long period,13.8%
same,milk production increased,[5]; 25 mg bGH per day,19%
same,nutritional efficiency (kg milk with 3.5% fat per kg dry matter ingested) increased,[5]; 25 mg bGH/day for a long period,16.8%
same,milk production increased,[5]; 50 mg bGH per day,22%
same,nutritional efficiency (kg milk with 3.5% fat per kg dry matter ingested) increased,[5]; 50 mg bGH/day for a long period,15.3%
